PubChem BioAssay AID192 (DTP/NCI, 2004)
Several values for one entry are separate records, joined by “and”; a condition that tells them apart may be missing. Identical values can stand only once. Inconclusive results and toxic doses are left out.

Test system: BDF1 mice, B16 melanoma ip, median survival T/C
Assay: NCI In Vivo Anticancer Drug Screen. Data for tumor model B16 Melanoma (intraperitoneal) in B6D2F1 (BDF1) mice
Conditions: endpoint: median survival time, higher = longer survival
Method in brief: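 Transplantable tumor model; survival or tumor size measured; reported as T/C, treated over vehicle control.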

[1] = dose: 100.0 mg/kg/injection, schedule: Q04DX003 (ip), vehicle: Klucel (hydroxypropylcellulose) (HPC)
[2] = dose: 50.0 mg/kg/injection, schedule: Q01DX009 (ip), vehicle: Klucel (hydroxypropylcellulose) (HPC)
[3] = dose: 12.5 mg/kg/injection, schedule: Q01DX009 (ip), vehicle: saline with Tween-80
[4] = dose: 25.0 mg/kg/injection, schedule: Q01DX009 (ip), vehicle: saline with Tween-80
[5] = dose: 100.0 mg/kg/injection, schedule: Q01DX009 (ip), vehicle: saline with Tween-80
[6] = dose: 200.0 mg/kg/injection, schedule: Q01DX009 (ip), vehicle: saline with Tween-80
[7] = dose: 6.25 mg/kg/injection, schedule: Q01DX009 (ip), vehicle: saline with Tween-80

Question: What does the source list for `COc1cc2c(cc1OC)C(C#N)N(C(=O)c1ccccc1)C=C2` (stereo not given)?
Answer: T/C (dose: 0.1 mg/kg/injection, schedule: Q01DX009 (ip), vehicle: other): 102 % of control; T/C (dose: 0.19 mg/kg/injection, schedule: Q01DX009 (ip), vehicle: other): 104 % of control; T/C (dose: 0.38 mg/kg/injection, schedule: Q01DX009 (ip), vehicle: other): 107 % of control; T/C (dose: 0.75 mg/kg/injection, schedule: Q01DX009 (ip), vehicle: other): 111 % of control; T/C (dose: 1.5 mg/kg/injection, schedule: Q01DX009 (ip), vehicle: other): 112 % of control

Question: Which results are given for `CCOc1nsc(OCC)n1`?
Answer: T/C (dose: 12.5 mg/kg/injection, schedule: Q04DX003 (ip), vehicle: distilled water + Tween-80): 103 % of control; T/C (dose: 25.0 mg/kg/injection, schedule: Q04DX003 (ip), vehicle: distilled water + Tween-80): 96 % of control; T/C (dose: 50.0 mg/kg/injection, schedule: Q04DX003 (ip), vehicle: distilled water + Tween-80): 99 % of control; T/C (dose: 100.0 mg/kg/injection, schedule: Q04DX003 (ip), vehicle: distilled water + Tween-80): 98 % of control

Question: With `CCCCCCCC(=O)Nc1ccc(C)cc1` as the compound, how does the T/C (dose: 50.0 mg/kg/injection, schedule: Q04DX003 (ip), vehicle: Klucel (hydroxypropylcellulose) (HPC)) read?
Answer: Its T/C is 89 % of control.

Question: What about the T/C [1] of the same compound?
Answer: Its T/C is 91 % of control.

Question: How did the T/C (dose: 12.5 mg/kg/injection, schedule: Q01DX009 (ip), vehicle: saline sonified) turn out when `CCCCNC(C)(C)COC(=O)/C=C/c1ccc(OCCCC)cc1` was run?
Answer: Its T/C is 97 % of control.

Question: And the T/C (dose: 25.0 mg/kg/injection, schedule: Q01DX009 (ip), vehicle: saline sonified)?
Answer: The T/C was 97 % of control.

Question: What about the T/C (dose: 50.0 mg/kg/injection, schedule: Q01DX009 (ip), vehicle: saline sonified) of the same compound?
Answer: The T/C was 104 % of control.

Question: And the T/C (dose: 100.0 mg/kg/injection, schedule: Q01DX009 (ip), vehicle: saline sonified)?
Answer: Its T/C is 93 % of control.

Question: `O=S(=O)(/N=C1C=C/C(=N/S(=O)(=O)c2ccccc2)C2C3C=CC(C3)C/12)c1ccccc1` (stereo not given) was tested. Which T/C [1] did it give?
Answer: Its T/C is 92 % of control.

Question: What about the T/C (dose: 200.0 mg/kg/injection, schedule: Q04DX003 (ip), vehicle: Klucel (hydroxypropylcellulose) (HPC)) of the same compound?
Answer: Its T/C is 86 % of control.

Question: Which results are given for `COc1cc2c[n+](C)c3c4cc(OC)c(OC)cc4ccc3c2cc1OC`?
Answer: T/C (dose: 6.25 mg/kg/injection, schedule: Q01DX001 (ip), vehicle: saline with Tween-80): 109 % of control; T/C (dose: 12.5 mg/kg/injection, schedule: Q01DX001 (ip), vehicle: saline with Tween-80): 100 % of control; T/C (dose: 25.0 mg/kg/injection, schedule: Q01DX001 (ip), vehicle: saline with Tween-80): 105 % of control; T/C (dose: 50.0 mg/kg/injection, schedule: Q01DX001 (ip), vehicle: saline with Tween-80): 88 % of control; T/C [2]: 108 % of control; T/C (dose: 100.0 mg/kg/injection, schedule: Q01DX001 (ip), vehicle: saline with Tween-80): 90 % of control; T/C (dose: 100.0 mg/kg/injection, schedule: Q01DX009 (ip), vehicle: Klucel (hydroxypropylcellulose) (HPC)): 102 % of control

Question: With `O=[N+]([O-])/C=C\c1ccc2c(c1)OCO2` as the compound, how does the T/C (dose: 22.0 mg/kg/injection, schedule: Q01DX009 (ip), vehicle: Klucel (hydroxypropylcellulose) (HPC)) read?
Answer: The T/C was 96 % of control.

Question: And the T/C (dose: 33.0 mg/kg/injection, schedule: Q01DX009 (ip), vehicle: Klucel (hydroxypropylcellulose) (HPC))?
Answer: The T/C was 108 % of control.

Question: What about the T/C [2] of the same compound?
Answer: Its T/C is 96 % of control.

Question: What about the T/C (dose: 75.0 mg/kg/injection, schedule: Q01DX009 (ip), vehicle: Klucel (hydroxypropylcellulose) (HPC)) of the same compound?
Answer: The T/C was 100 % of control.

Question: For `CN1CCN(Cc2nc3cccc4c3c([n+]2[O-])-c2ccccc2-4)CC1`, which T/C [3] is on record?
Answer: The T/C was 101 % of control.

Question: What about the T/C [4] of the same compound?
Answer: The T/C was 95 % of control.

Question: What about the T/C (dose: 50.0 mg/kg/injection, schedule: Q01DX009 (ip), vehicle: saline with Tween-80) of the same compound?
Answer: Its T/C is 105 % of control.

Question: And the T/C [5]?
Answer: Its T/C is 112 % of control.

Question: And the T/C [6]?
Answer: Its T/C is 116 % of control.

Question: Which results are given for `CC(C)CN(CC(C)C)c1ccc([N+](=O)[O-])cc1[N+](=O)[O-]`?
Answer: T/C [7]: 105 % of control; T/C [3]: 107 % of control; T/C [4]: 87 % of control and 114 % of control; T/C [5]: 105 % of control; T/C (dose: 400.0 mg/kg/injection, schedule: Q01DX009 (ip), vehicle: saline with Tween-80): 86 % of control

Question: `CCCCCCCCCCCCCCCCCCCCCC(=O)Nc1ccn(C2OC(CO)C(O)C2O)c(=O)n1` (stereo not given) was tested. Which T/C [7] did it give?
Answer: The T/C was 102 % of control.

Question: What about the T/C [3] of the same compound?
Answer: Its T/C is 102 % of control.

Question: What about the T/C [4] of the same compound?
Answer: Its T/C is 119 % of control.

Question: What about the T/C [6] of the same compound?
Answer: Its T/C is 163 % of control.

Question: `COc1cc(OC)cc(C(O)C(C)NC(C)C)c1` (stereo not given) was tested. Which T/C (dose: 6.25 mg/kg/injection, schedule: Q01DX009 (ip), vehicle: saline) did it give?
Answer: The T/C was 112 % of control.

Question: What about the T/C (dose: 50.0 mg/kg/injection, schedule: Q01DX009 (ip), vehicle: saline) of the same compound?
Answer: Its T/C is 87 % of control.

Question: What about the T/C (dose: 100.0 mg/kg/injection, schedule: Q01DX009 (ip), vehicle: saline) of the same compound?
Answer: The T/C was 112 % of control.
